From patent US6924302B2, “Substituted triazole diamine derivatives as kinase inhibitors” (Ortho McNeil Pharmaceutical, Inc., priority 2000, dated 2005)
Read-outs that look alike come from different tables or passages of the source.

Legend:
[1] = test system: SK-OV-3 ovarian adenocarcinoma; test: Inhibition of Cell Proliferation (14C-thymidine incorporation), SK-OV-3; format: cell-based; details: Homo sapiens, SK-OV-3 cell line
Method: (§1) The ability of a test compound to inhibit the proliferation of cell growth was determined by measuring incorporation of ^14C-labelled thymidine into newly synthesized DNA within the cells. […] Cells were trypsinized and counted and 3000-8000 cells were added to each well of a 96-well CytoStar tissue culture treated scintillating microplate (Amersham #RPNQ0160) in complete medium in a volume of 100 μl. Cells were incubated for 24 hours in complete medium at 37° C. in an atmosphere containing 5% CO2. Next, 1 μl of test compound in 100% DMSO was added to the wells of the plate. DMSO only was added to control wells. Cells were incubated for 24 more hours in complete medium at 37° C. in an atmosphere containing 5% CO2. […] The plate was incubated for 24 hours at 37° C. plus 5% CO2 in drug plus ^14C-thymidine. The contents of the plate were discarded into a ^14C radioactive waste container by inverting the plate and the plate was washed twice with 200 μl PBS. 200 μl of PBS is added to each well. […] The degree of methyl ^14C-thymidine incorporation was quantified on a Packard Top Count.

[2] = target: T1, VEGF-R (vascular endothelial growth factor receptor-2) (Rattus norvegicus, UniProt O08775); test: VEGF-R Screening Assay; format: biochemical; details: read-out: VEGF-R IC50
T1 construct: polyhistidine (6xHIS) (N)
T1 sequence (O08775 786-1343): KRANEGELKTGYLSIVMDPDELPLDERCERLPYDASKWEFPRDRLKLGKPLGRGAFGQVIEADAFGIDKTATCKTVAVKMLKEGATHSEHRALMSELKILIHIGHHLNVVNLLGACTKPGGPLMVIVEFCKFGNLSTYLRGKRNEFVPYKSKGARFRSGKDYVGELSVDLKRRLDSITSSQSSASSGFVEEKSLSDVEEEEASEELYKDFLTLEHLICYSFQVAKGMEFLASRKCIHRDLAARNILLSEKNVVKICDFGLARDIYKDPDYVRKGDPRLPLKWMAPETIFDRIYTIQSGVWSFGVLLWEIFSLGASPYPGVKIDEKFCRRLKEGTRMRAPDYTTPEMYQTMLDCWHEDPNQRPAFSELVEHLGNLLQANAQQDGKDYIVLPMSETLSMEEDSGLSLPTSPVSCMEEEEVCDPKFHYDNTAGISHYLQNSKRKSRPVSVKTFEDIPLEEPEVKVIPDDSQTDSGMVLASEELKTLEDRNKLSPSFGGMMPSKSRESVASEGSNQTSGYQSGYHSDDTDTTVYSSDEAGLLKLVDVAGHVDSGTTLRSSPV

MDA-MB-231 = test: Inhibition of Cell Proliferation (14C-thymidine incorporation), MDA-MB-231; format: cell-based; details: Homo sapiens, MDA-MB-231 cell line
Method: as §1

FGF-R2 = FGF-R2 (Homo sapiens, UniProt P21802); test: Kinase Selectivity Assay FGF-R2; format: biochemical; details: Tables 2a-2k
Chain of FGF-R2 (P21802 22-821, species assumed): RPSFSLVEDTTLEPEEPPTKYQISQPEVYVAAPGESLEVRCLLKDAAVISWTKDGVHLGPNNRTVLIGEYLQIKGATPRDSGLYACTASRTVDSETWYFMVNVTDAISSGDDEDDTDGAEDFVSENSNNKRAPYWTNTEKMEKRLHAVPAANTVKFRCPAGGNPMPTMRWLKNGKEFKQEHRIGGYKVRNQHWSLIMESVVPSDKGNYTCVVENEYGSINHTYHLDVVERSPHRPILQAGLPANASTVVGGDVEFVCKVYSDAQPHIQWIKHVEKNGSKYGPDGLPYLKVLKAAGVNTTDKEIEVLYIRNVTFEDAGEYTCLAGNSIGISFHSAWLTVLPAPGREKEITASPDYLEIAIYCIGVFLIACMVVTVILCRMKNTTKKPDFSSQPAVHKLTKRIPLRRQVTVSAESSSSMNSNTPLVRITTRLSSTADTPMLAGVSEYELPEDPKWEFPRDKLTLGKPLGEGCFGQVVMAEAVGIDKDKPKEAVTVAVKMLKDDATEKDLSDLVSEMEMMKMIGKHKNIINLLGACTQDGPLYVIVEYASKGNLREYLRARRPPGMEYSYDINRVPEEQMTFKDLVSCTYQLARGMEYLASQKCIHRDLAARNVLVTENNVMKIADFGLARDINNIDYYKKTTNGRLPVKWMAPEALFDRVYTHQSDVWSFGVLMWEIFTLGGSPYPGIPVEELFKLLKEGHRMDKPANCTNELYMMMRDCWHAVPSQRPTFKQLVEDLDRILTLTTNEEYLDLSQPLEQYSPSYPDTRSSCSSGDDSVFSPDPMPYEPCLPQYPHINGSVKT
Method: Assays to test compound inhibition of other kinases were preformed using methods that measure the amount of phosphorylation of a biotinylated peptide substrate. Biotinylated peptide substrates were selected from the literature as appropriate for the enzyme being evaluated. […] Assay conditions vary slightly for each protein kinase, for example, insulin receptor kinase requires 10 mM MnCl2 for activity and Calmodulin-dependent protein kinase requires calmodulin and 10 mM CaCl2. These assay conditions are known in the art. The reaction mixture was dispensed into the wells of a streptavidin coated Flashplate and 1 μl drug stock in 100% DMSO was added to a 100 μl reaction volume resulting in a final concentration of 1% DMSO on the reaction. Enzyme was diluted in 50 mM Tris-HCl pH=8.0, 0.1% BSA and add to each well. The reaction was incubated for one hour at 30° C. in the presence of compound. After one hour the reaction mix was aspirated from the plate and the plate was washed with PBS containing 100 mM EDTA. The plate was read on a scintillation counter to determine ^33P-γ-ATP incorporated into the immobilized peptide. Test compounds were assayed in duplicate at 8 concentrations [100 uM, 10 uM, 1 uM, 100 nM, 10 nM, 1 nM, 100 pM, 10 pM]. A maximum and minimum signal for the assay was determined on each plate. The IC50 was calculated from the dose response curve of the percent inhibition of the maximum signal in the assay according to the formula [max signal—background/test compound signal—background (100)=% inhibition] by graphing the percent inhibition against the log concentration of test compound. Known inhibitor compounds appropriate for the kinase being assayed were also included on each plate.

[3] = target: T2, CDK2 in complex with cyclin A (Homo sapiens, UniProt P24941); test: Kinase Selectivity Assay CDK2; format: biochemical; details: Table 1
T2 construct: purchased Upstate Biotech
Procedure, shortened: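 Inhibition was measured as reduced ^33P-γ-ATP labelling of a biotinylated peptide substrate immobilized on streptavidin plates after one hour at 30° C.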

[4] = Kinase Selectivity, Tables 2a-2k

SMILES | IC50 [1] [nM] | IC50 [2, 4] [nM] | IC50 ([2]; Table 1) [nM] | IC50 (MDA-MB-231) [nM] | IC50 (FGF-R2) [nM] | IC50 [3] [nM]
Nc1nc(Nc2ccc(S(N)(=O)=O)cc2)nn1C(=O)c1sccc1F [Cpd 16, 4-[[5-amino-1-[(3-fluoro-2-thienyl)carbonyl]-1H-1,2,4-triazol-3-yl]amino]-benzenesulfonamide] | 2110 | 13.7 | 13.7 | – | – | –
Nc1nc(Nc2ccc(S(N)(=O)=O)cc2)nn1C(=O)c1sccc1Cl [Cpd 17, 4-[[5-amino-1-[(3-chloro-2-thienyl)carbonyl]-1H-1,2,4-triazol-3-yl]amino]-benzenesulfonamide] | 3900 | 27 | 27 | – | – | –
Nc1nc(Nc2ccc(S(N)(=O)=O)cc2)nn1C(=O)c1ccsc1 [Cpd 30, 4-[[5-amino-1-(3-thienylcarbonyl)-1H-1,2,4-triazol-3-yl]amino]-benzenesulfonamide] | 5750 | 40.6 | 40.6 | – | – | –
CCc1ccc(C(=O)n2nc(Nc3ccc(S(N)(=O)=O)cc3)nc2N)s1 [Cpd 32, 4-[[5-amino-1-[(5-ethyl-2-thienyl)carbonyl]-1H-1,2,4-triazol-3-yl]amino]-benzenesulfonamide] | – | 22 | 21.9 | 131 | – | –
Cc1nc(C)c(C(=O)n2nc(Nc3ccc(S(N)(=O)=O)cc3)nc2N)s1 [Cpd 34, 4-[[5-amino-1-[(2,4-dimethyl-5-thiazolyl)carbonyl]-1H-1,2,4-triazol-3-yl]amino]-benzenesulfonamide] | – | – | – | 898 | – | –
Nc1nc(Nc2ccc(S(N)(=O)=O)cc2)nn1C(=O)c1sccc1Br [Cpd 35, 4-[[5-amino-1-[(3-bromo-2-thienyl)carbonyl]-1H-1,2,4-triazol-3-yl]amino]-benzenesulfonamide] | – | – | 46.3 | 1140 | – | –
Nc1nc(Nc2ccc(S(N)(=O)=O)cc2)nn1C(=O)C1CCCC1 [Cpd 38, 4-[[5-amino-1-(cyclopentylcarbonyl)-1H-1,2,4-triazol-3-yl]amino]-benzenesulfonamide] | – | – | – | 6760 | – | –
Nc1nc(Nc2ccc(S(N)(=O)=O)cc2)nn1C(=O)C1CCCCC1 [Cpd 39, 4-[[5-amino-1-(cyclohexylcarbonyl)-1H-1,2,4-triazol-3-yl]amino]-benzenesulfonamide] | – | – | – | 2910 | – | –
CC(C)(C)c1ccc(C(=O)n2nc(Nc3ccc(S(N)(=O)=O)cc3)nc2N)s1 [Cpd 51, 4-[[5-amino-1-[[5-(1,1-dimethylethyl)-2-thienyl]carbonyl]-1H-1,2,4-triazol-3-yl]amino]-benzenesulfonamide] | – | 19 | 19 | – | – | –
CC(O)c1ccc(F)c(C(=O)n2nc(Nc3ccc(S(N)(=O)=O)cc3)nc2N)c1F (centres unmarked) [Cpd 58, 4-[[5-amino-1-[2,6-difluoro-3-(1-hydroxyethyl)benzoyl]-1H-1,2,4-triazol-3-yl]amino]-benzenesulfonamide] | – | 419 | 420 | – | 96 | –
Cc1ccc(F)c(C(=O)n2nc(Nc3ccc(S(N)(=O)=O)cc3)nc2N)c1Cl [Cpd 69, 4-[[5-amino-1-(2-chloro-6-fluoro-3-methylbenzoyl)-1H-1,2,4-triazol-3-yl]amino]-benzenesulfonamide] | – | – | – | – | 365 | –
Nc1nc(Nc2ccc(S(N)(=O)=O)cc2)nn1C(=O)c1c(F)cccc1Cl [Cpd 70, 4-[[5-amino-1-(2-chloro-6-fluorobenzoyl)-1H-1,2,4-triazol-3-yl]amino]-benzenesulfonamide] | – | – | – | – | 273 | –
CN1CCN(c2ccc(Nc3nc(N)n(C(=O)c4c(F)cccc4F)n3)cc2)CC1 [Cpd 71, 1-(2,6-difluorobenzoyl)-N^3-[4-(4-methyl-1-piperazinyl)phenyl]-1H-1,2,4-triazole-3,5-diamine] | – | 430 | 430 | – | 441 | –
CNS(=O)(=O)c1ccc(Nc2nc(N)n(C(=O)c3c(F)cccc3F)n2)cc1 [Cpd 80, 4-[[5-amino-1-(2,6-difluorobenzoyl)-1H-1,2,4-triazol-3-yl]amino]-N-methyl-benzenesulfonamide] | 16300 | – | 935 | – | – | –
CNS(=O)(=O)c1ccc(Nc2nc(N)n(C(=O)c3c(F)ccc(C)c3F)n2)cc1 [Cpd 81, 4-[[5-amino-1-(2,6-difluoro-3-methylbenzoyl)-1H-1,2,4-triazol-3-yl]amino]-N-methyl-benzenesulfonamide] | 348 | – | – | – | 268 | 1
CNS(=O)(=O)c1ccc(Nc2nc(N)n(C(=O)c3sccc3C)n2)cc1 [Cpd 82, 4-[[5-amino-1-[(3-methyl-2-thienyl)carbonyl]-1H-1,2,4-triazol-3-yl]amino]-N-methyl-benzenesulfonamide] | 921 | – | – | – | 89 | –
CCc1ccc(C(=O)n2nc(Nc3ccc(S(=O)(=O)NC)cc3)nc2N)s1 [Cpd 84, 4-[[5-amino-1-[(5-ethyl-2-thienyl)carbonyl]-1H-1,2,4-triazol-3-yl]amino]-N-methyl-benzenesulfonamide] | 461 | – | – | – | 300 | –
CCc1ccc(C(=O)n2nc(Nc3ccc(S(=O)(=O)NCCN(C)C)cc3)nc2N)s1 [Cpd 103, 4-[[5-amino-1-[(5-ethyl-2-thienyl)carbonyl]-1H-1,2,4-triazol-3-yl]amino]-N-[2-(dimethylamino)ethyl]-benzenesulfonamide] | – | 45 | 44.9 | – | 170 | 1
Cc1ccsc1C(=O)n1nc(Nc2ccc(S(=O)(=O)NCCN(C)C)cc2)nc1N [Cpd 104, 4-[[5-amino-1-[(3-methyl-2-thienyl)carbonyl]-1H-1,2,4-triazol-3-yl]amino]-N-[2-(dimethylamino)ethyl]-benzenesulfonamide] | – | – | – | – | 200 | 1
Cc1cc(C)c(C(=O)n2nc(Nc3ccc(NS(C)(=O)=O)cc3)nc2N)s1 [Cpd 108, N-[4-[[5-amino-1-[(3,5-dimethyl-2-thienyl)carbonyl]-1H-1,2,4-triazol-3-5 yl]amino]phenyl]-methanesulfonamide] | – | 30 | 30.7 | – | 307 | 12
Cc1ccsc1C(=O)n1nc(Nc2ccc(N3CCNC3=O)cc2)nc1N [Cpd 113, 1-[4-[[5-amino-1-[(3-methyl-2-thienyl)carbonyl]-1H-1,2,4-triazol-3-yl]amino]phenyl]-2-imidazolidinone] | 281 | 30 | 30.2 | – | – | –
Cc1ccsc1C(=O)n1nc(Nc2ccc(N3CCCS3(=O)=O)cc2)nc1N [Cpd 116, N^3-[4-(1,1-dioxido-2-isothiazolidinyl)phenyl]-1-[(3-methyl-2-thienyl)carbonyl]-1H-1,2,4-triazole-3,5-diamine] | – | 26 | 26.1 | – | – | 1
Nc1nc(Nc2ccc(N3CCCS3(=O)=O)cc2)nn1C(=O)c1c(F)cccc1F [Cpd 117] | – | 908 | 908 | – | – | 7
Nc1nc(Nc2ccc(S(=O)(=O)Nc3ccccn3)cc2)nn1C(=O)c1c(F)cccc1F [Cpd 118, 4-[[5-amino-1-(2,6-difluorobenzoyl)-1H-1,2,4-triazol-3-yl]amino]-N-(2-pyridinyl)-benzenesulfonamide] | – | 397 | 397 | – | – | 21
Cc1cc(C)c(C(=O)n2nc(Nc3ccc(S(=O)(=O)Nc4ccccn4)cc3)nc2N)s1 [Cpd 120] | – | 82 | 82 | – | – | 9
Cc1ccc(F)c(C(=O)n2nc(N)nc2Nc2ccc(S(N)(=O)=O)cc2)c1F [Cpd 123, 4-[[3-amino-1-(2,6-difluoro-3-methylbenzoyl)-1H-1,2,4-triazol-5-yl]amino]-benzenesulfonamide] | – | – | – | – | – | 31
